In US20250052985A1, “SYSTEM AND METHOD FOR QUANTITATIVE PHASE IMAGING FOR MULTI-PARAMETRIC SCREENING OF TUMOR THERAPY RESPONSE” (UNIVERSITY OF UTAH RESEARCH FOUNDATION, priority 2023, published 2025):
“And” between values parts separate entries of the source, which are not always exact repeats. Equal entries are not always repeated. Where two headings read alike, the source gives them in different places.

System: MDA-MB-231 cells
Experiment: Quantitative phase imaging (QPI) growth response, MDA-MB-231
Format: cell-based
Set-up: DoR QPI: scale not given here; ToR 20 μM: unit not given here
Details: for Max Asymptote / Min Asymptote: MDA-MB-231, 4-parameter Hill fit of mean SGR vs concentration, one line per replicate; for EC50: Homo sapiens; for DoR QPI / ToR 20 μM: MDA-MB-231 cell line; for DoR QPI: depth of response; for ToR 20 μM: time of response at 20 μM
Text: In some embodiments, breast cancer cell lines are imaged, representing diverse clinical subtypes, summarized in Table 2 below, using a QPI microscope (FIG. 1A) based on differential phase contrast (DPC) microscopy and phase reconstruction via a QPI microscope system. DPC is used for image acquisition and phase reconstruction because DPC's flexible design may be customized for high throughput phase measurements. […] As illustrated in the embodiment of FIG. 1A, a QPI microscope system 100 conducts assays in a 96-well plate (e.g., a well-plate 105) with 6-point dose response curves and up to five therapies in triplicate including solvent controls, summarized in Table 4 below. As described below, in reference to FIG. 1A, a growth response of cells is measured noninvasively using QPI via a QPI microscope system 110 before being assayed using a CTG reader 115.
FIG. 1B illustrates a timeline plot 200 showing two plates (e.g., two, separate well-plates 105) set up in parallel to measure cell viability. With reference to FIG. 1B, two plates are set-up simultaneously for each experiment. A first plate 205 is incubated for 27 hours (h) post drug exposure prior to CTG analysis (3 h equilibration+24 h of imaging), which measures cell adenosine triphosphate (ATP) content as a surrogate for cell viability. A second plate 210 is imaged for 72 h after 3 h equilibration (e.g., 75 h) and followed by CTG. […] The imaging locations are imaged for 72 h, as shown by images 1700-1715 of FIG. 7.
In some embodiments, a dose-dependent change in growth, as indicated by a change in the rate of mass accumulation or loss, is a parameter that can be extracted from QPI dose-response data. […] Individual specific growth rate measurements are indicated by points in the distribution of the graph 1200 of FIG. 2A. Blue is indicative of the DMSO control and red is indicative of doxorubicin. The black outline is a kernel density function fit to the distribution of specific growth rates for each condition (e.g., *p<0.05, **p<0.01). In some embodiments, the average SGR of each condition is fit to a sigmoid dose-response curve using a Hill equation. For example, computed logistic fit parameters using a 4-parameter Hill model via the QPI microscope system 110 for all conditions are summarized in Tables 5-8 below. To determine if there is a response, as illustrated by FIG. 2B, the QPI microscope system 110 tests goodness of fit, adjusts for degrees of freedom using an F-test at significance p<0.01 by comparison to a flat line, as an indicator of no response. For cases with a better fit to the Hill equation, the 4-parameter Hill curve may be used by the QPI microscope system 110 to determine the EC50, a measure of sensitivity to therapy because it represents the effective concentration at which 50% of the cells respond to therapy, as illustrated by FIG. 10. […] A 4-parameter Hill curve is fit to each dose response plot to extract the depth of response and EC50 for each cell/drug pair. A flat line represents no response due to failure of the F-test to reject the null hypothesis that the logistic fit is indistinguishable from a flat line. […] Each color indicates a different drug or therapy used.

[1] = MDA-MB-231, MDA-MB-231 cell line, EC50 of the standard deviation, read-out: EC50, SD (converted)
[2] = MDA-MB-231, 24 h, 24 h QPI, MDA-MB-231, Hill fit, EC50 in μM per Table 1, read-out: log10(EC50) (converted)
[3] = MDA-MB-231, MDA-MB-231 cell line, QPI growth rate, read-out: EC50, QPI

CC(=O)O[C@@]12CO[C@@H]1C[C@H](O)[C@@]1(C)C(=O)[C@H](O)C3=C(C)[C@@H](OC(=O)[C@H](O)[C@@H](NC(=O)OC(C)(C)C)c4ccccc4)C[C@@](O)([C@@H](OC(=O)c4ccccc4)[C@H]21)C3(C)C [Docetaxel]
Max Asymptote (24 h QPI): 0.03347 and 0.03066 and 0.02364
Min Asymptote (24 h QPI): 0.01673 and 0.01578 and 0.02364
Max Asymptote (72 h QPI): 0.01382 and 0.01017 and 0.02742
Min Asymptote (72 h QPI): 0.04028 and 0.02962 and 0.02742
EC50 [1]: 0.00111 µM
growth rate and heterogeneity over time (MDA-MB-231): decrease in growth rate and heterogeneity simultaneously
growth rate and heterogeneity over time (MDA-MB-231, 0.4 μM): decrease in growth rate and heterogeneity simultaneously
growth rate and heterogeneity over time (MDA-MB-231, 2 μM): decrease in growth rate and heterogeneity simultaneously
SGR distribution over 72 h (MDA-MB-231, 20 μM): distinctive long tail of non-responders that persists at 72 h
growth rate and heterogeneity over time (MDA-MB-231, 20 μM): decrease in growth rate and heterogeneity simultaneously
growth rate and heterogeneity over time (MDA-MB-231, lowest concentrations, FIG. 21 G-H): growth rate decreases over time with little change in heterogeneity
DoR QPI: 0.7
ToR 20 μM: 3.5

CC(=O)c1c(C)c2cnc(Nc3ccc(N4CCNCC4)cn3)nc2n(C2CCCC2)c1=O [Palbociclib]
Max Asymptote (24 h QPI): 0.03459 and 0.03302 and 0.02322
Min Asymptote (24 h QPI): 0.004781 and −0.01622 and 0.01166
Max Asymptote (72 h QPI): −2.92E−05 and 0.006396 and 0.007784
Min Asymptote (72 h QPI): 0.03469 and 0.03153 and 0.02663
DoR QPI: 0.6
ToR 20 μM: 1.6

C[C@]12CC[C@@H]3c4ccc(O)cc4C[C@@H](CCCCCCCCC[S+]([O-])CCCC(F)(F)C(F)(F)F)[C@H]3[C@@H]1CC[C@@H]2O (some centres unmarked) [Fulvestrant]
Max Asymptote (24 h QPI): 0.02847
Min Asymptote (24 h QPI): 0.02401
Hill Slope (24 h QPI, MDA-MB-231, Hill fit): 2.2482
Max Asymptote (72 h QPI): 0.01423 and 0.00907
Min Asymptote (72 h QPI): 0.02796 and 0.03032
Hill Slope (72 h QPI, MDA-MB-231, Hill fit): 1.492 and 0.9134
EC50 [2]: 3.43 µM
EC50 [1]: 3.32 µM
EC50 [3]: 11.4 µM
DoR QPI: 0.6
ToR 20 μM: 14.4

O=c1[nH]cc(F)c(=O)[nH]1 [5FU, 5-Fluorouracil]
Max Asymptote (24 h QPI): 0.03336
Min Asymptote (24 h QPI): 0.01996
Hill Slope (24 h QPI, MDA-MB-231, Hill fit): 0.341
Max Asymptote (72 h QPI): −0.009666
Min Asymptote (72 h QPI): 0.03351
Hill Slope (72 h QPI, MDA-MB-231, Hill fit): 0.4483
EC50 [2]: 17.4 µM
EC50 (MDA-MB-231, 72 h, 72 h QPI, MDA-MB-231, Hill fit, EC50 in μM per Table 1, read-out: log10(EC50) (converted)): 118 µM
EC50 [3]: 118 µM
DoR QPI: 1.2
ToR 20 μM: 15.2
